Laboratory results published in US8362000B2, “Azetidinyl diamides as monoacylglycerol lipase inhibitors” (Janssen Pharmaceutica NV, priority 2009, dated 2013).
Where a chain is given by its changes, count along the chain named. Read-outs that look alike come from different tables or passages of the source.

Tests used:
[1] = target: T1, purified wild type MGL (wt-MGLL 6H-11-313) (Homo sapiens, UniProt Q99685)
T1 sequence (Q99685 1-303): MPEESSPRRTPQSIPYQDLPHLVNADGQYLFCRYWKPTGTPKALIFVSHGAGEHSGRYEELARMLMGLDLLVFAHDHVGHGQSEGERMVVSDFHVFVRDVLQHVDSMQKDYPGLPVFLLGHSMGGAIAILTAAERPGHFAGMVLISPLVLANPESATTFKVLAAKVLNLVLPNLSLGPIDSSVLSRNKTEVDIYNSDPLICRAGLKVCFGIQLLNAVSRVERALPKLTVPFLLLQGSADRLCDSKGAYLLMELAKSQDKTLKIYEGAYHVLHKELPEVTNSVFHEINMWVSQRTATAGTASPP

MGL = target: T2, MGL (Rattus norvegicus, UniProt Q8R431); assay: 2-AG accumulation assay in rat brain homogenate; type: biochemical; settings: rat brain homogenate, 2-AG accumulation as percent of vehicle; for 2-AG accumulation, % of vehicle control at 1 µM: compound 1 μM, read-out: Rat Brain 2AG % VehCntrl (%) @ 1 μM; for 2-AG accumulation, % of vehicle control at 10 µM: compound 10 μM, read-out: Rat Brain 2AG % VehCntrl (%) @ 10 μM
T2 construct: one g rat brain was homogenized using a Polytron homogenizer; from tissue; host or cells: rat brain homogenate
T2 sequence (Q8R431 1-303): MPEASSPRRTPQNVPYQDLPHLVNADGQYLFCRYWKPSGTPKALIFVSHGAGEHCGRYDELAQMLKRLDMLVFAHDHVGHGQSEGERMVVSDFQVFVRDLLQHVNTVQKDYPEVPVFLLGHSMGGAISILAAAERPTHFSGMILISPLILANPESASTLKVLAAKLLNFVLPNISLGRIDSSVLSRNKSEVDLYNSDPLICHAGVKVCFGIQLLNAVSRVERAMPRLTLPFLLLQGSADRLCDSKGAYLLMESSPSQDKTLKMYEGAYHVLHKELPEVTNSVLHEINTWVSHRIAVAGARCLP

mutant MGL = target: T3, mutant MGL (Homo sapiens, UniProt Q99685, L169S/L176S); assay: MGL ThermoFluor assay - mutant; type: binding
T3 sequence (Q99685 1-303 L169S/L176S): T1 sequence (Q99685 1-303) with L169S, L176S

[2] = ThermoFluor, compound concentration measured by qNMR, read-out: MGL mutant ThermoFluor qKd (μM) (using qNMR conc.)
[3] = ThermoFluor, compound concentration measured by qNMR, read-out: MGL mutant ThermoFluor qKd (using qNMR conc.)
[4] = ThermoFluor concentration-response, read-out: MGL mutant ThermoFluor Kd
[5] = ThermoFluor thermal stability binding assay, read-out: MGL mutant ThermoFluor Kd
[6] = compound concentration measured by qNMR, read-out: MGL mutant ThermoFluor qKd (using qNMR conc.)

Structure (SMILES)	IC50 [1]	2-AG accumulation, % of vehicle control at 1 µM (MGL)	Kd (mutant MGL; [2])	Kd (mutant MGL; [3])	2-AG accumulation, % of vehicle control at 10 µM (MGL)	Kd (mutant MGL; [4])	Kd (mutant MGL; [5])	Kd (mutant MGL; [6])
O=C(c1cscn1)N1CCN(C2CN(C(=O)c3sc4c(C(F)(F)F)c(F)ccc4c3Cl)C2)CC1 [Cpd 697]	62 nM	431%	0.024 µM	–	–	–	–	–
Cc1c(C(=O)N2CC(N3CCN(C(=O)c4nccs4)CC3)C2)[nH]c2ccc(Br)cc12 [Cpd 682]	30 nM	390%	–	0.014 µM	–	–	–	–
O=C(c1csc(-c2cc(Cl)cc(Cl)c2)n1)N1CC(N2CCN(C(=O)c3nccs3)CC2)C1 [Cpd 158, 1-(1-{[2-(3,5-Dichlorophenyl)-1,3-thiazol-4-yl]carbonyl}azetidin-3-yl)-4-(1,3-thiazol-2-ylcarbonyl)piperazine]	657 nM	126%	–	–	213%	0.476 µM	–	–
NC(=O)c1cccc(-n2ccc3cc(C(=O)N4CC(N5CCN(C(=O)c6nccs6)CC5)C4)ccc32)c1 [Cpd 1177]	63 nM	895%	0.088 µM	–	–	–	–	–
Cc1cc(C(=O)N2CC(N3CCN(C(=O)c4nccs4)CC3)C2)sc1-c1ccc(F)cc1 [Cpd 1353]	< 5 nM	545%	0.018 µM	–	–	–	–	–
O=C(c1ccccc1)N1CCN(C2CN(C(=O)c3ccc4c(-c5ccc(C(F)(F)F)cc5)c[nH]c4c3)C2)CC1 [Cpd 634]	57 nM	301%	–	–	–	0.054 µM	–	–
Cc1c(-c2ccccc2)oc2c(C(=O)N3CC(N4CCN(C(=O)c5nccs5)CC4)C3)cccc2c1=O [Cpd 476]	338 nM	–	–	–	272%	0.0667 µM	–	–
O=C(c1ccc2c(c1)CCN(c1ccccc1)C2)N1CC(N2CCN(C(=O)c3nccs3)CC2)C1 [Cpd 883]	< 5 nM	767%	–	–	–	–	0.059 µM	–
O=C(c1nccs1)N1CCN(C2CN(C(=O)c3sc4ccc5ccccc5c4c3Cl)C2)CC1 [Cpd 890]	< 5 nM	823%	–	–	–	0.001 µM	–	–
O=C(c1ccccc1)N1CCN(C2CN(C(=O)c3sc4ccc(Cl)cc4c3C(F)(F)F)C2)CC1 [Cpd 506]	48 nM	132%	–	–	–	0.059 µM	–	–
Cc1cc(C(=O)N2CC(N3CCN(C(=O)c4nccs4)CC3)C2)sc1-c1cccc(C(F)(F)F)c1 [Cpd 1354]	< 5 nM	750%	0.009 µM	–	–	–	–	–
O=C(c1nccs1)N1CCN(C2CN(C(=O)c3[nH]c4nc(C(F)(F)F)ccc4c3Br)C2)CC1 [Cpd 675]	19 nM	330%	–	0.025 µM	–	–	–	–
O=C(c1cscn1)N1CCN(C2CN(C(=O)c3cc4ccn(-c5ccc(F)cc5)c4cc3F)C2)CC1 [Cpd 1069]	7 nM	696%	–	–	–	0.028 µM	–	–
O=C(c1ccc(C(F)c2ccc(C(F)(F)F)cc2)cc1)N1CC(N2CCN(C(=O)c3nccs3)CC2)C1 (stereo not shown) [Cpd 982, 1-{1-[(4-{Fluoro[4-(trifluoromethyl)phenyl]methyl}phenyl)carbonyl]azetidin-3-yl}-4-(1,3-thiazol-2-ylcarbonyl)piperazine]	< 5 nM	762%	–	–	–	0.01 µM	–	–
CC1CN(C2CN(C(=O)c3ccc(Cc4ccccc4)cc3)C2)CCN1C(=O)c1nccs1 (stereo not shown) [Cpd 115]	11.7 nM	–	–	–	579%	0.037 µM	–	–
COc1c(C(=O)N2CC(N3CCN(C(=O)c4cscn4)CC3)C2)sc2cc(C(F)(F)F)ccc12 [Cpd 700]	72 nM	547%	–	–	–	–	–	0.006 µM
O=C(c1cc(-c2cccc(F)c2)c2[nH]ccc2c1)N1CC(N2CCN(C(=O)c3nccs3)CC2)C1 [Cpd 1183]	85 nM	549%	0.067 µM	–	–	–	–	–
Cn1cc(I)c2ccc(C(=O)N3CC(N4CCN(C(=O)c5nccs5)CC4)C3)cc21 [Cpd 701]	77 nM	475%	–	–	–	0.008 µM	–	–
O=C(c1ccc(-c2ccccc2)s1)N1CC(N2CCN(C(=O)c3nccs3)CC2)C1 [Cpd 1122, 1-{1-[(5-Phenylthiophen-2-yl)carbonyl]azetidin-3-yl}-4-(1,3-thiazol-2-ylcarbonyl)piperazine]	18 nM	143%	–	–	–	0.027 µM	–	–
O=C(c1ccc(F)c(Cc2ccc(C(F)(F)F)cc2)c1)N1CC(N2CCN(C(=O)c3nccs3)CC2)C1 [Cpd 1007, 1-[1-({4-Fluoro-3-[4-(trifluoromethyl)benzyl]phenyl}carbonyl)azetidin-3-yl]-4-(1,3-thiazol-2-ylcarbonyl)piperazine]	27 nM	180%	–	–	–	0.259 µM	–	–
O=C(c1ccc2c(c1)C1C=CCC1C(c1cccc(Cl)c1)N2)N1CC(N2CCN(C(=O)c3nccs3)CC2)C1 (stereo not shown) [Cpd 667]	14 nM	856%	–	–	–	0.013 µM	–	–
O=C(c1ccc2c(cnn2-c2ccccc2)c1)N1CC(N2CCN(C(=O)c3cscn3)CC2)C1 [Cpd 1163, 1-Phenyl-5-({3-[4-(1,3-thiazol-4-ylcarbonyl)piperazin-1-yl]azetidin-1-yl}carbonyl)-1H-indazole]	48 nM	244%	–	–	–	0.073 µM	–	–
Cc1cc(C(=O)N2CC(N3CCN(C(=O)c4nccs4)CC3)C2)sc1-c1cccc(F)c1 [Cpd 1065]	7 nM	531%	0.036 µM	–	–	–	–	–
O=C(c1nccs1)N1CCN(C2CN(C(=O)c3sc4c(C(F)(F)F)c(F)ccc4c3Cl)C2)CC1 [Cpd 902, 1-(1-{[3-chloro-6-fluoro-7-(trifluoromethyl)-1-benzothiophen-2-yl]carbonyl}azetidin-3-yl)-4-(1,3-thiazol-2-ylcarbonyl)piperazine]	< 5 nM	585%	0.004 µM	–	–	–	–	–
O=C(c1ccc(Sc2cccc(Cl)c2)cc1)N1CC(N2CCN(C(=O)C(F)(F)F)CC2)C1 [Cpd 677]	21 nM	141%	–	–	–	–	–	0.432 µM
Cc1cc(C(=O)N2CC(N3CCN(C(=O)c4ccns4)CC3)C2)ccc1-c1cccc(C(F)(F)F)c1 [Cpd 1114, 1-(Isothiazol-5-ylcarbonyl)-4-(1-{[2-methyl-3′-(trifluoromethyl)biphenyl-4-yl]carbonyl}azetidin-3-yl)piperazine]	16 nM	293%	–	–	–	0.049 µM	–	–
O=C(c1nccs1)N1CCN(C2CN(C(=O)c3cccc4oc(-c5ccccc5Cl)nc34)C2)CC1 [Cpd 1173]	65 nM	133%	–	–	–	–	0.007 µM	–
O=C(c1ccccc1)N1CCN(C2CN(C(=O)c3ccc(S(=O)(=O)c4cccc(C(F)(F)F)c4)cc3)C2)CC1 [Cpd 508]	107 nM	119%	–	–	–	0.162 µM	–	–
